Laboratory results taken from ChEMBL document CHEMBL1201862, “PubChem BioAssay data set” (2004).
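1) Cells in 96-well plates. 2) Compound, 48 h, 5 concentrations. 3) Linear interpolation between surrounding doses. 4) Unreached endpoint = highest concentration. GI50: concentration for 50% inhibition of growth.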 The source made the active and inactive calls. Cut-off read from the data, not from the text of the source: active = GI50 up to about 1.1 µM and inactive = higher.

Experiments:
Test in all cases: DTP human tumour cell line panel, 48 h
EKVX = system: EKVX
HCC 2998 = system: HCC 2998
RXF 393 = system: RXF 393
NCI-H23 = system: NCI-H23
NCI/ADR-RES = system: NCI/ADR-RES
A549 = system: A549
UO-31 = system: UO-31
SK-MEL-5 = system: SK-MEL-5
UACC-257 = system: UACC-257
MDA-MB-435 = system: MDA-MB-435
MOLT-4 = system: MOLT-4
SF-268 = system: SF-268
HOP-62 = system: HOP-62
HOP-92 = system: HOP-92
ACHN = system: ACHN
SN12C = system: SN12C
CAKI-1 = system: CAKI-1
SK-MEL-28 = system: SK-MEL-28
OVCAR-4 = system: OVCAR-4
OVCAR-5 = system: OVCAR-5
HCT-116 = system: HCT-116
OVCAR-8 = system: OVCAR-8
BT-549 = system: BT-549
MCF7 = system: MCF7
HL-60 = system: HL-60
A498 = system: A498
IGROV-1 = system: IGROV-1
LOX IMVI = system: LOX IMVI
786-0 = system: 786-0
TK-10 = system: TK-10
SK-MEL-2 = system: SK-MEL-2
SNB-19 = system: SNB-19
NCI-H460 = system: NCI-H460
MDA-N = system: MDA-N
SW-620 = system: SW-620
DU-145 = system: DU-145
HT-29 = system: HT-29
SNB-75 = system: SNB-75
NCI-H522 = system: NCI-H522
NCI-H226 = system: NCI-H226
HCT-15 = system: HCT-15
SK-OV-3 = system: SK-OV-3
KM12 = system: KM12
SF-295 = system: SF-295
U-251 = system: U-251
CCRF-CEM = system: CCRF-CEM
COLO 205 = system: COLO 205
K562 = system: K562
SF-539 = system: SF-539
OVCAR-3 = system: OVCAR-3
M14 = system: M14
MDA-MB-231 = system: MDA-MB-231
PC-3 = system: PC-3
Malme-3M = system: Malme-3M
UACC-62 = system: UACC-62
Hs-578T = system: Hs-578T
T47D = system: T47D
RPMI-8226 = system: RPMI-8226

c1ccc(OCc2nnc(CCCCCCCCc3nnc(COc4ccccc4)o3)o2)cc1
GI50 (EKVX): > 100 µM (inactive) | GI50 (HCC 2998): 28.6 µM (inactive) | GI50 (RXF 393): 13.2 µM (inactive) | GI50 (NCI-H23): 65.9 µM (inactive) | GI50 (NCI/ADR-RES): > 100 µM (inactive) | GI50 (A549): > 100 µM (inactive) | GI50 (UO-31): > 100 µM (inactive) | GI50 (SK-MEL-5): > 100 µM (inactive) | GI50 (UACC-257): > 100 µM (inactive) | GI50 (MDA-MB-435): > 100 µM (inactive) | GI50 (MOLT-4): > 100 µM (inactive) | GI50 (SF-268): 99.5 µM (inactive) | GI50 (HOP-62): 97.3 µM (inactive) | GI50 (HOP-92): 55.6 µM (inactive) | GI50 (ACHN): > 100 µM (inactive) | GI50 (SN12C): > 100 µM (inactive) | GI50 (CAKI-1): > 100 µM (inactive) | GI50 (SK-MEL-28): > 100 µM (inactive) | GI50 (OVCAR-4): > 100 µM (inactive) | GI50 (OVCAR-5): > 100 µM (inactive) | GI50 (HCT-116): 63.8 µM (inactive) | GI50 (OVCAR-8): 28.9 µM (inactive) | GI50 (BT-549): > 100 µM (inactive) | GI50 (MCF7): > 100 µM (inactive) | GI50 (HL-60): > 100 µM (inactive) | GI50 (A498): > 100 µM (inactive) | GI50 (IGROV-1): > 100 µM (inactive) | GI50 (LOX IMVI): > 100 µM (inactive) | GI50 (786-0): 47.5 µM (inactive) | GI50 (TK-10): > 100 µM (inactive) | GI50 (SK-MEL-2): > 100 µM (inactive) | GI50 (SNB-19): 73.8 µM (inactive) | GI50 (NCI-H460): > 100 µM (inactive) | GI50 (MDA-N): > 100 µM (inactive) | GI50 (SW-620): > 100 µM (inactive) | GI50 (DU-145): > 100 µM (inactive) | GI50 (HT-29): > 100 µM (inactive) | GI50 (SNB-75): 28.1 µM (inactive) | GI50 (NCI-H522): 50.6 µM (inactive) | GI50 (NCI-H226): > 100 µM (inactive) | GI50 (HCT-15): > 100 µM | GI50 (SK-OV-3): 32.8 µM (inactive) | GI50 (KM12): > 100 µM (inactive) | GI50 (SF-295): > 100 µM (inactive) | GI50 (U-251): 32.2 µM (inactive) | GI50 (CCRF-CEM): > 100 µM (inactive) | GI50 (COLO 205): > 100 µM (inactive) | GI50 (K562): > 100 µM (inactive) | GI50 (SF-539): 32.2 µM (inactive) | GI50 (OVCAR-3): 27.8 µM (inactive) | GI50 (M14): > 100 µM (inactive) | GI50 (MDA-MB-231): 47.6 µM (inactive) | GI50 (PC-3): > 100 µM (inactive)

COc1cc(/C=N/NC(=O)c2c(Cl)c(Cl)c(Cl)c(Cl)c2-c2nc3ccccc3[nH]2)ccc1O
GI50 (Malme-3M): 21.7 µM (inactive) | GI50 (EKVX): 19.2 µM (inactive) | GI50 (HCC 2998): 17.2 µM (inactive) | GI50 (RXF 393): 20.2 µM (inactive) | GI50 (NCI-H23): 19.9 µM (inactive) | GI50 (NCI/ADR-RES): > 100 µM (inactive) | GI50 (A549): 29.9 µM (inactive) | GI50 (UO-31): 22.4 µM (inactive) | GI50 (SK-MEL-5): 14.9 µM (inactive) | GI50 (UACC-257): 29.3 µM (inactive) | GI50 (MDA-MB-435): 29 µM (inactive) | GI50 (MOLT-4): 18 µM (inactive) | GI50 (SF-268): 32.5 µM (inactive) | GI50 (HOP-62): 21.6 µM (inactive) | GI50 (HOP-92): 10.8 µM (inactive) | GI50 (ACHN): 21.4 µM (inactive) | GI50 (SN12C): 24.2 µM (inactive) | GI50 (CAKI-1): 25.3 µM (inactive) | GI50 (UACC-62): 15.8 µM (inactive) | GI50 (SK-MEL-28): 33.6 µM (inactive) | GI50 (OVCAR-5): 27.9 µM (inactive) | GI50 (HCT-116): 16.7 µM (inactive) | GI50 (OVCAR-8): 31.1 µM (inactive) | GI50 (BT-549): 21.1 µM (inactive) | GI50 (MCF7): 16.9 µM (inactive) | GI50 (HL-60): 21.2 µM (inactive) | GI50 (A498): 27.5 µM (inactive) | GI50 (IGROV-1): 14 µM (inactive) | GI50 (LOX IMVI): 22.4 µM (inactive) | GI50 (786-0): 28 µM (inactive) | GI50 (SK-MEL-2): 20.3 µM (inactive) | GI50 (SNB-19): 30.5 µM (inactive) | GI50 (NCI-H460): 19.1 µM (inactive) | GI50 (MDA-N): 24 µM (inactive) | GI50 (SW-620): 34.4 µM (inactive) | GI50 (DU-145): 19.9 µM (inactive) | GI50 (HT-29): 22.2 µM (inactive) | GI50 (SNB-75): 22.9 µM (inactive) | GI50 (NCI-H522): 30.6 µM (inactive) | GI50 (NCI-H226): 21.3 µM (inactive) | GI50 (HCT-15): 22 µM | GI50 (SK-OV-3): 35.5 µM (inactive) | GI50 (KM12): 24.2 µM (inactive) | GI50 (SF-295): 24.1 µM (inactive) | GI50 (Hs-578T): 44 µM (inactive) | GI50 (CCRF-CEM): 21.9 µM (inactive) | GI50 (COLO 205): 22.3 µM (inactive) | GI50 (T47D): 0.56 µM (active) | GI50 (K562): 20.4 µM (inactive) | GI50 (SF-539): 26.7 µM (inactive) | GI50 (OVCAR-3): 27.3 µM (inactive) | GI50 (M14): 24.7 µM (inactive) | GI50 (PC-3): 29.4 µM (inactive)

N=C(N)c1ccc2oc3ccc(C(=N)N)cc3c(=O)c2c1
GI50 (Malme-3M): 98.2 µM (inactive) | GI50 (HCC 2998): > 100 µM (inactive) | GI50 (RXF 393): > 100 µM (inactive) | GI50 (NCI-H23): > 100 µM (inactive) | GI50 (NCI/ADR-RES): > 100 µM (inactive) | GI50 (A549): > 100 µM (inactive) | GI50 (UO-31): > 100 µM (inactive) | GI50 (SK-MEL-5): > 100 µM (inactive) | GI50 (UACC-257): > 100 µM (inactive) | GI50 (MDA-MB-435): > 100 µM (inactive) | GI50 (MOLT-4): > 100 µM (inactive) | GI50 (SF-268): > 100 µM (inactive) | GI50 (HOP-92): > 100 µM (inactive) | GI50 (ACHN): > 100 µM (inactive) | GI50 (SN12C): > 100 µM (inactive) | GI50 (CAKI-1): > 100 µM (inactive) | GI50 (UACC-62): > 100 µM (inactive) | GI50 (SK-MEL-28): > 100 µM (inactive) | GI50 (OVCAR-4): > 100 µM (inactive) | GI50 (OVCAR-5): > 100 µM (inactive) | GI50 (HCT-116): > 100 µM (inactive) | GI50 (OVCAR-8): > 100 µM (inactive) | GI50 (BT-549): > 100 µM (inactive) | GI50 (MCF7): 60.4 µM (inactive) | GI50 (HL-60): > 100 µM (inactive) | GI50 (A498): > 100 µM (inactive) | GI50 (IGROV-1): > 100 µM (inactive) | GI50 (786-0): > 100 µM (inactive) | GI50 (RPMI-8226): > 100 µM (inactive) | GI50 (TK-10): > 100 µM (inactive) | GI50 (SK-MEL-2): > 100 µM (inactive) | GI50 (SNB-19): > 100 µM (inactive) | GI50 (NCI-H460): > 100 µM (inactive) | GI50 (MDA-N): > 100 µM (inactive) | GI50 (SW-620): > 100 µM (inactive) | GI50 (DU-145): > 100 µM (inactive) | GI50 (HT-29): > 100 µM (inactive) | GI50 (SNB-75): > 100 µM (inactive) | GI50 (NCI-H522): > 100 µM (inactive) | GI50 (NCI-H226): > 100 µM (inactive) | GI50 (HCT-15): > 100 µM | GI50 (KM12): > 100 µM (inactive) | GI50 (SF-295): > 100 µM (inactive) | GI50 (U-251): > 100 µM (inactive) | GI50 (CCRF-CEM): > 100 µM (inactive) | GI50 (COLO 205): > 100 µM (inactive) | GI50 (T47D): > 100 µM (inactive) | GI50 (K562): > 100 µM (inactive) | GI50 (SF-539): > 100 µM (inactive) | GI50 (OVCAR-3): > 100 µM (inactive) | GI50 (M14): > 100 µM (inactive) | GI50 (MDA-MB-231): > 100 µM (inactive) | GI50 (PC-3): > 100 µM (inactive)
